Experimental data reported in patent publication US20240270762A1, “PENICILLIN-BINDING PROTEIN INHIBITORS” (priority 2021, published 2024).
pEC50: −log10 of the molar value. Converted amounts (≈) assume the structure as drawn.

Key:
A. baumannii CDC-0036 = assay: microbe, parasite or virus in culture; format: cell-based; conditions: Acinetobacter baumannii, CDC0036, read-out: MIC, A. baumannii CDC-0036
[1] = test system: B. thailandensis ATCC 700388; assay: microbe, parasite or virus in culture; format: cell-based; conditions: Burkholderia thailandensis, ATCC700388, read-out: Minimum inhibitory concentration (MIC), B. thailandensis ATCC 700388
[2] = test system: P. aeruginosa (ΔmexAB-oprM); assay: Broth microdilution MIC in iron-depleted CAMHB (IDM); format: cell-based; conditions: Pseudomonas aeruginosa; iron-depleted CAMHB (IDM); […]; read-out: Minimum inhibitory concentration, P. aeruginosa ΔmexAB-oprM
A. baumannii PBP1a = target: T1, A. baumannii PBP1a (Acinetobacter baumannii, UniProt A0ABX6CK30); assay: Bocillin-FL competition binding via gel filtration, A. baumannii PBP1a; conditions: competition binding assay using Bocillin-FL via gel filtration; read-out: A. baumannii PBP1a Potency
T1 sequence (A0ABX6CK30 1-851): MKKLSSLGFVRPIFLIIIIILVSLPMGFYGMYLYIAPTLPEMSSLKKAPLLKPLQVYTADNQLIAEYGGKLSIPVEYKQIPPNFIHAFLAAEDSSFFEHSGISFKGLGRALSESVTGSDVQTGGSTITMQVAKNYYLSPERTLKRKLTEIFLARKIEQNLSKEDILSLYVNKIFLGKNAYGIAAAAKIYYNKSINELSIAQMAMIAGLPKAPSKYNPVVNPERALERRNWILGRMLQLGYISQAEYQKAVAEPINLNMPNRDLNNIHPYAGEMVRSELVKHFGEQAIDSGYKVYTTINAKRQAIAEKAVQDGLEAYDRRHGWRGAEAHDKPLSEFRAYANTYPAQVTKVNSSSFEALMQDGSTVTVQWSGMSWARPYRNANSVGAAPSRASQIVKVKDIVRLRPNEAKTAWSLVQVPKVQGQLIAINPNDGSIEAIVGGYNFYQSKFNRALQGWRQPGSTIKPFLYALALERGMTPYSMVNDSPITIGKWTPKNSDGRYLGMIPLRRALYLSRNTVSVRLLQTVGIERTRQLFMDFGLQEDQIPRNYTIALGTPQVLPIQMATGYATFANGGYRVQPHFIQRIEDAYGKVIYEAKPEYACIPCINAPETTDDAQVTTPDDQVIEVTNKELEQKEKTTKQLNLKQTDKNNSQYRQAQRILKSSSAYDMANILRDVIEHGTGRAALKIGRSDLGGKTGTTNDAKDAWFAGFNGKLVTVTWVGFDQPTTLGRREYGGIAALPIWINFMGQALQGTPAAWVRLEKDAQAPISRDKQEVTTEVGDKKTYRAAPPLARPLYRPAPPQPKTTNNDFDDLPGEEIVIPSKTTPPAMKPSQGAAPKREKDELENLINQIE
Method in brief: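 Enzyme pre-incubated with increasing inhibitor concentrations, then Bocillin-FL added for 15 min further incubation. Bocillin-FL-bound PBP separated by gel filtration and fluorescence read. EC50 from fitting fraction PBP bound vs inhibitor concentration to a Hill-type equation (ymin, ymax, n).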

P. aeruginosa CDC-0054 = assay: microbe, parasite or virus in culture; format: cell-based; conditions: Pseudomonas aeruginosa, CDC0054, read-out: Minimum inhibitory concentration, P. aeruginosa CDC-0054
A. baumannii ATCC 17978 = assay: microbe, parasite or virus in culture; format: cell-based; conditions: Acinetobacter baumannii, ATCC17978, read-out: MIC, A. baumannii ATCC 17978
A. baumannii 1258916 = assay: microbe, parasite or virus in culture; format: cell-based, Acinetobacter baumannii; conditions: Acinetobacter baumannii, 1258916, read-out: MIC, A. baumannii 1258916

SMILES | MIC (A. baumannii CDC-0036) [µg/mL] | MIC [1] [µg/mL] | MIC [2] [µg/mL] | pEC50 (A. baumannii PBP1a) | MIC (P. aeruginosa CDC-0054) [µg/mL] | MIC (A. baumannii ATCC 17978) [µg/mL] | MIC (A. baumannii 1258916) [µg/mL]
O=C(NCCCN1CCN(C(=O)NC(C(=O)N[C@H]2Cc3ccc(F)c(C(=O)O)c3OB2O)c2cc(F)c(O)c(O)c2Cl)C(=O)C1=O)c1cc(O)c(F)c(O)c1F (stereo partly drawn) [Example 415, (3R)-3-(2-(2-chloro-5-fluoro-3,4-dihydroxyphenyl)-2-(4-(3-(2,4-difluoro-3,5-dihydroxybenzamido)propyl)-2,3-dioxopiperazine-1-carboxamido)acetamido)-7-fluoro-2-hydroxy-3,4-dihydro-2H-benzo[e][1,2]oxaborinine-8-carboxylic acid] | 2 to 4 (≈ 2.46 to 4.93 µM) | 8 to 16 (≈ 9.85 to 19.7 µM) | < 1 | > 5.00 | < 1 | < 1 | 2 to 4 (≈ 2.46 to 4.93 µM)
O=C(NCCCN1CCN(C(=O)N[C@@H](C(=O)N[C@H]2Cc3ccc(F)c(C(=O)O)c3OB2O)c2cc(F)c(O)c(O)c2Cl)C(=O)C1=O)c1ccncc1O [Example 296, (R)-3-((R)-2-(2-chloro-5-fluoro-3,4-dihydroxyphenyl)-2-(4-(3-(3-hydroxyisonicotinamido)propyl)-2,3-dioxopiperazine-1-carboxamido)acetamido)-7-fluoro-2-hydroxy-3,4-dihydro-2H-benzo[e][1,2]oxaborinine-8-carboxylic acid] | < 1 | 2 to 4 (≈ 2.63 to 5.26 µM) | < 1 | > 5.00 | < 1 | < 1 | < 1
O=C(NCCCN1CCN(C(=O)N[C@@H](C(=O)N[C@H]2Cc3ccc(F)c(C(=O)O)c3OB2O)c2cc(F)c(O)c(O)c2Cl)C(=O)C1=O)c1ccc(O)cc1F (racemic) [Example 417] | 2 to 4 (≈ 2.57 to 5.14 µM) | > 128 | < 1 | 4.30 to 5.00 | 8 to 16 (≈ 10.3 to 20.6 µM) | < 1 | < 1
O=C(O)c1c(F)ccc2c1OB(O)[C@@H](NC(=O)[C@@H](NC(=O)N1CCN(C3CCN(C(=O)Nc4ccc(O)cc4)CC3)C1=O)c1cc(F)c(O)c(O)c1Cl)C2 (single isomer, unassigned) [Example 467] | < 1 | < 1 | < 1 | > 5.00 | 2 to 4 (≈ 2.59 to 5.18 µM) | < 1 | < 1
O=C(NCCCN1CCN(C(=O)N[C@@H](C(=O)N[C@H]2Cc3ccc(F)c(C(=O)O)c3OB2O)c2cc(F)c(O)c(O)c2Cl)C(=O)C1=O)c1cc(F)c(O)c(F)c1 [Example 422, (R)-3-((R)-2-(2-chloro-5-fluoro-3,4-dihydroxyphenyl)-2-(4-(3-(3,5-difluoro-4-hydroxybenzamido)propyl)-2,3-dioxopiperazine-1-carboxamido)acetamido)-7-fluoro-2-hydroxy-3,4-dihydro-2H-benzo[e][1,2]oxaborinine-8-carboxylic acid] | 2 to 4 (≈ 2.51 to 5.03 µM) | < 1 | < 1 | > 5.00 | < 1 | < 1 | < 1
O=C(NCCCN1CCN(C(=O)N[C@@H](C(=O)N[C@H]2Cc3ccc(F)c(C(=O)O)c3OB2O)c2cc(F)c(O)c(O)c2Cl)C1=O)Nc1ccc(O)cc1 [Example 284, (R)-3-((R)-2-(2-chloro-5-fluoro-3,4-dihydroxyphenyl)-2-(3-(3-(3-(4-hydroxyphenyl)ureido)propyl)-2-oxoimidazolidine-1-carboxamido)acetamido)-7-fluoro-2-hydroxy-3,4-dihydro-2H-benzo[e][1,2]oxaborinine-8-carboxylic acid] | < 1 | < 1 | < 1 | > 5.00 | < 1 | < 1 | < 1
O=C(O)c1c(F)ccc2c1OB(O)[C@@H](NC(=O)C(NC(=O)N1CCN(C3CCN(C(=O)c4cncc(O)c4)CC3)C(=O)C1=O)c1cc(F)c(O)c(O)c1Cl)C2 (stereo partly drawn) [Example 425, (3R)-3-(2-(2-chloro-5-fluoro-3,4-dihydroxyphenyl)-2-(4-(1-(5-hydroxynicotinoyl)piperidin-4-yl)-2,3-dioxopiperazine-1-carboxamido)acetamido)-7-fluoro-2-hydroxy-3,4-dihydro-2H-benzo[e][1,2]oxaborinine-8-carboxylic acid] | < 1 | < 1 | < 1 | 4.30 to 5.00 | < 1 | < 1 | < 1
O=C(NCCCN1CCN(C(=O)NC(C(=O)N[C@H]2Cc3ccc(F)c(C(=O)O)c3OB2O)c2cc(F)c(O)c(O)c2Cl)C(=O)C1=O)c1ccc(O)c(Cl)c1F (stereo partly drawn) [Example 419, (3R)-3-(2-(4-(3-(3-chloro-2-fluoro-4-hydroxybenzamido)propyl)-2,3-dioxopiperazine-1-carboxamido)-2-(2-chloro-5-fluoro-3,4-dihydroxyphenyl)acetamido)-7-fluoro-2-hydroxy-3,4-dihydro-2H-benzo[e][1,2]oxaborinine-8-carboxylic acid] | 2 to 4 (≈ 2.46 to 4.92 µM) | 2 to 4 (≈ 2.46 to 4.92 µM) | < 1 | > 5.00 | 2 to 4 (≈ 2.46 to 4.92 µM) | < 1 | 2 to 4 (≈ 2.46 to 4.92 µM)
O=C(NCCS(=O)(=O)N1CCN(C(=O)NC(C(=O)N[C@H]2Cc3ccc(F)c(C(=O)O)c3OB2O)c2cc(F)c(O)c(O)c2Cl)C1=O)Nc1ccc(O)cc1 (stereo partly drawn) [Example 289, (3R)-3-(2-(2-chloro-5-fluoro-3,4-dihydroxyphenyl)-2-(3-((2-(3-(4-hydroxyphenyl)ureido)ethyl)sulfonyl)-2-oxoimidazolidine-1-carboxamido)acetamido)-7-fluoro-2-hydroxy-3,4-dihydro-2H-benzo[e][1,2]oxaborinine-8-carboxylic acid] | 2 to 4 (≈ 2.51 to 5.02 µM) | 8 to 16 (≈ 10 to 20.1 µM) | < 1 | > 5.00 | 2 to 4 (≈ 2.51 to 5.02 µM) | < 1 | < 1
O=C(NCCCN1CCN(C(=O)NC(C(=O)N[C@H]2Cc3ccc(F)c(C(=O)O)c3OB2O)c2cc(F)c(O)c(O)c2Cl)C(=O)C1=O)c1cc(O)cc(F)c1 (stereo partly drawn) [Example 410, (3R)-3-(2-(2-chloro-5-fluoro-3,4-dihydroxyphenyl)-2-(4-(3-(3-fluoro-5-hydroxybenzamido)propyl)-2,3-dioxopiperazine-1-carboxamido)acetamido)-7-fluoro-2-hydroxy-3,4-dihydro-2H-benzo[e][1,2]oxaborinine-8-carboxylic acid] | 2 to 4 (≈ 2.57 to 5.14 µM) | 2 to 4 (≈ 2.57 to 5.14 µM) | < 1 | > 5.00 | < 1 | < 1 | 2 to 4 (≈ 2.57 to 5.14 µM)
O=C(NCCCS(=O)(=O)N1CCN(C(=O)NC(C(=O)N[C@H]2Cc3ccc(F)c(C(=O)O)c3OB2O)c2cc(F)c(O)c(O)c2Cl)C1=O)Nc1cccnc1 (stereo partly drawn) [Example 278, (3R)-3-(2-(2-chloro-5-fluoro-3,4-dihydroxyphenyl)-2-(2-oxo-3-((3-(3-(pyridin-3-yl)ureido)propyl)sulfonyl)imidazolidine-1-carboxamido)acetamido)-7-fluoro-2-hydroxy-3,4-dihydro-2H-benzo[e][1,2]oxaborinine-8-carboxylic acid] | 2 to 4 (≈ 2.51 to 5.03 µM) | 2 to 4 (≈ 2.51 to 5.03 µM) | < 1 | 4.30 to 5.00 | 2 to 4 (≈ 2.51 to 5.03 µM) | < 1 | < 1
O=C(O)c1c(F)ccc2c1OB(O)[C@@H](NC(=O)[C@H](NC(=O)N1CCN(C3CCN(C(=O)Nc4ccc(O)cc4)CC3)C1=O)c1cc(F)c(O)c(O)c1Cl)C2 (single isomer, unassigned) [Example 468] | < 1 | < 1 | < 1 | > 5.00 | < 1 | < 1 | < 1
